Assay results from patent US5374636A, “2,3-trans-disubstituted tropane compounds which have useful pharmaceutical utility” (NeuroSearch A/S, priority 1992, dated 1994).

Columns and labels:
[1] = tested on: reuptake of dopamine in synaptosomes of rat forebmin; assay: Inhibition of reuptake of dopamine in synaptosomes of rat forebrain (3H-dopamine uptake); format: biochemical, rat (male Wistar); conditions: for IC50: rat forebrain synaptosomes, 3H-dopamine 1×10^-9 M, 10 min at 37° C., read-out: Dopamine reuptake inhibiting activity (IC50)
Protocol: Fresh whole forebmin (at 0°-4° C.) from male Wistar rats (150-200 g) is homogenized in a glass homogenizer with a teflon pestle in 20×volumes 0.32M sucrose. The homogenate is centrifuged at 1000×g (~2900 rpm) for 10 min. The pellet is discarded and the supernatant is used for uptake assays.
The samples are thoroughly mixed and incubated 10 min at 37° C. followed by 2 min at 0° C. After incubation the samples are poured directly onto Whatman GF/C glass fibre filters under suction and immediately washed with 2×5 ml ice-cold 0.9% saline (NaCI) buffer. To the filter is added 3 ml of scintillation fluid, and the amount of radioactivity on the filters is determined by conventional liquid scintillation counting.

[2] = tested on: serotonine (5-hydroxythryptamine, 5-HT) reuptake; assay: Serotonin (5-HT) reuptake inhibition; format: biochemical; conditions: in combination with dopamine reuptake inhibition
[3] = tested on: abnormal stereotyped behaviour; assay: Classification of the abnormal stereotyped behaviour (side effect); format: in vivo, rat
Source text: Classification of the abnormal stereotyped behaviour.
Backward locomotion may occasionally be observed.
+=only stereotyped sniffing
++=stereotyped sniffing and episodic licking
+++=Continuous licking and/or biting gnawing

[4] = tested on: excitatory Iocomotor and rearing responses; assay: Classification of behavioural excitatory locomotor and rearing responses (side effect); format: in vivo, rat (male SPF wistar)
Protocol: Male SPF wistar rats weighing 200-250 g were used for the gross behavioural studies. All rats were transferred the day before the experiments to individual cages made of wire netting (floor area 21×27 cm, height 16 cm) at a room temperature of 21°-23° C. […] The behavioural elements here classified as rearing (i.e. standing up on the hindlegs) and Iocomotor activities (i.e. forward running activities) were registered, and the maximum peak effects were classified according to the following rating scale:
0=non-existent or very infrequent
++=moderate in intensity and frequency
+++=very strong, continuous and intense

Row | SMILES | dopamine reuptake inhibiting activity (in words) [1] | IC50 [1] | serotonine (5-HT) reuptake inhibiting activity [2] | Activity (high intensity abnormal stereotyped behaviour) ([3]; 50 mg/kg i.p.) | Activity (high intensity abnormal stereotyped behaviour) ([3]; 25 mg/kg i.p.) | Activity (excitatory locomotor and rearing responses, maximum peak effect) ([4]; 50 mg/kg i.p.) | side effects as measured by excitatory locomotor activity and rearing responses as well as abnormal stereotyped behaviour ([4]; every relevant dosing level tested)
1 | CN1[C@H]2CC[C@@H]1[C@H](COc1ccc(Cl)cc1)[C@@H](c1ccc(F)cc1)C2.Cl [(1R,2R,3S)-2-(4-Chlorophenoxy-methyl)-3-(4-fluorophenyl)tropane, hydrochloride] | potent dopamine reuptake inhibiting activity | 390 nM | very potent serotonine (5-hydroxythryptamine, 5-HT) reuptake inhibiting activity | 0 |  |  | 
2 | COC(=O)[C@@H]1[C@@H](c2ccc3ccccc3c2)C[C@@H]2CC[C@H]1N2C [(1R,2R,3S)-2-carbomethoxy-3-(2-naphthyl)tropane] |  | 100 nM |  |  | 0 |  | 
3 | COC(=O)[C@@H]1[C@@H](c2ccc(Cl)c(Cl)c2)C[C@@H]2CC[C@H]1N2C [(1R,2R,3S)-2-carbomethoxy-3-(3,4-dichlorophenyl)tropane] |  | 16 nM |  | +++ |  | + | 
4 | COC(=O)[C@@H]1[C@@H](c2ccc(F)cc2)C[C@@H]2CC[C@H]1N2C [trans isomer of Win 35,428, (1R,2R,3S)-2-carbomethoxy-3-(4-fluorophenyl)tropane] |  |  |  |  |  |  | essentially or totally devoid of side effects
